Drawing on PubChem BioAssay (NCI), this text covers TGI for eleven compounds.

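Cells were grown in 96-well plates and exposed to each compound for 48 hours at five concentrations; endpoints were interpolated linearly between bracketing concentrations, or set to the highest concentration if not reached. The concentration for full growth arrest is given as TGI.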

Some test systems named below: TK-10 renal; OVCAR-4 ovarian; ACHN renal; K-562 leukemia; RXF 393 renal; SNB-19 CNS; U251 CNS; HT29 colon; SK-OV-3 ovarian; SK-MEL-5 melanoma; HL-60(TB) leukemia; RPMI-8226 leukemia; HOP-62 NSCLC; MALME-3M melanoma; KM12 colon; MCF7 breast; MDA-MB-435.
Holding throughout (assay): NCI tumour cell line growth inhibition, 48 h

For `CC1(Br)S(=O)(=O)OCCOS1(=O)=O`, the TGI with TK-10 renal, in the test on OVCAR-4 ovarian, with ACHN renal, in the test on K-562 leukemia, in the test on RXF 393 renal and with SNB-19 CNS was over 100 µM each time. Further, the TGI in the test with U251 CNS, in the test with HT29 colon, in the test with SK-OV-3 ovarian, in the test with SK-MEL-5 melanoma, in the test on HL-60(TB) leukemia and with RPMI-8226 leukemia was over 100 µM each time. Moreover, the TGI in the test on HOP-62 NSCLC and in the test on MALME-3M melanoma was over 100 µM in each case.
Regarding `C=CC(Br)(CBr)CCC(Br)C(C)(C)Br` (centres undefined), the TGI was 30.3 µM with TK-10 renal; 22.3 µM with KM12 colon; 32.3 µM in the test with OVCAR-4 ovarian; 25.3 µM in the test with ACHN renal; 66 µM with K-562 leukemia; 28.8 µM with RXF 393 renal. In addition, the TGI was 27.6 µM in the test with U251 CNS; 26.8 µM with HT29 colon; 35.7 µM with SK-OV-3 ovarian; 27.8 µM with SK-MEL-5 melanoma; 11.9 µM with RPMI-8226 leukemia; 36.1 µM in the test with HOP-62 NSCLC. The same compound yielded a TGI with MALME-3M melanoma of 30.4 µM.
Turning to `OC1=CN=C(C2CC2)Oc2ccccc21`, the TGI in the test on TK-10 renal, in the test on KM12 colon, in the test with OVCAR-4 ovarian, in the test on ACHN renal, with K-562 leukemia and in the test on RXF 393 renal was over 100 µM each time. Moreover, the TGI in the test on SNB-19 CNS, with U251 CNS, with HT29 colon, with SK-OV-3 ovarian, with SK-MEL-5 melanoma and in the test on HL-60(TB) leukemia was over 100 µM in each case. In addition, the TGI in the test with RPMI-8226 leukemia, in the test on HOP-62 NSCLC and in the test on MALME-3M melanoma was over 100 µM each time.
With `c1ccc(N=C2C(=Nc3ccccc3)N(C3CCCCC3)C(=NC3CCCCC3)N2c2ccccc2)cc1`, the TGI in the test with TK-10 renal, with KM12 colon, in the test with ACHN renal, in the test with MCF7 breast, in the test with K-562 leukemia and with RXF 393 renal was over 100 µM throughout. In addition, the TGI in the test with SNB-19 CNS, with U251 CNS, with HT29 colon, in the test with SK-MEL-5 melanoma, in the test with HL-60(TB) leukemia and in the test on RPMI-8226 leukemia was over 100 µM each time. For the same compound, the TGI in the test on HOP-62 NSCLC and in the test on MALME-3M melanoma was over 100 µM throughout.
Regarding `Cc1ccc(S(=O)(=O)C(C#N)c2nc3ccccc3nc2N2CCOCC2)cc1` (centres undefined), the TGI with TK-10 renal was over 100 µM; in the test on KM12 colon, 38.2 µM; in the test with OVCAR-4 ovarian, 37.4 µM; with ACHN renal, over 100 µM; in the test with SNB-19 CNS, 95.6 µM; in the test with U251 CNS, 35.8 µM. The TGI is over 100 µM in the test on SK-OV-3 ovarian; over 100 µM in the test with SK-MEL-5 melanoma; 87.6 µM with RPMI-8226 leukemia; 44.6 µM with HOP-62 NSCLC; 63.5 µM in the test with MALME-3M melanoma.
As for `COC(=O)NN/C=C(\C=Nc1ccccc1)[N+](=O)[O-]`, the TGI in the test with TK-10 renal, in the test with OVCAR-4 ovarian, in the test with ACHN renal, in the test on K-562 leukemia, in the test with RXF 393 renal and with SNB-19 CNS was over 100 µM each time. The TGI in the test on U251 CNS, in the test with HT29 colon, in the test on SK-OV-3 ovarian, with SK-MEL-5 melanoma, in the test on HL-60(TB) leukemia and with RPMI-8226 leukemia was over 100 µM in each case. For the same compound, in the test on HOP-62 NSCLC, the TGI is over 100 µM.
As for `Cc1ccc([S+](c2ccccc2)c2cc(C)ccc2C)cc1` (centres undefined), the TGI in the test with KM12 colon was over 100 µM; in the test on OVCAR-4 ovarian, over 100 µM; in the test with ACHN renal it was over 100 µM; in the test on K-562 leukemia it was over 100 µM; in the test with SNB-19 CNS, over 100 µM; in the test on SK-MEL-5 melanoma, 3.91 µM. The TGI with HL-60(TB) leukemia is 66.5 µM; in the test with RPMI-8226 leukemia, over 100 µM; in the test on HOP-62 NSCLC, 90.8 µM; in the test on MALME-3M melanoma it was over 100 µM.
Regarding `C=C(C)C1Cc2c(cc(OC)c3c(=O)c4ccccc4n(C)c23)O1` (centres undefined), the TGI with TK-10 renal, with KM12 colon, in the test on OVCAR-4 ovarian, with ACHN renal, in the test on K-562 leukemia and in the test with RXF 393 renal was over 100 µM in each case. The TGI in the test with SNB-19 CNS, in the test with U251 CNS, in the test with HT29 colon, in the test with SK-OV-3 ovarian, with SK-MEL-5 melanoma and in the test on HL-60(TB) leukemia was over 100 µM in each case. In addition, the TGI with RPMI-8226 leukemia, in the test with HOP-62 NSCLC and in the test on MALME-3M melanoma was over 100 µM in each case.
As to `O=C(OCC(Cl)(Cl)Cl)N1CC[C@@H](C2CCCCC2)C1`, the TGI in the test with TK-10 renal is over 100 µM; with KM12 colon, 31.8 µM; in the test on OVCAR-4 ovarian it was 42.2 µM; in the test on ACHN renal it was 49.7 µM; in the test with MCF7 breast it was 45.5 µM; in the test on K-562 leukemia, 50.1 µM. For the same compound, the TGI in the test on RXF 393 renal is 37.1 µM; in the test with SNB-19 CNS, 38.6 µM; with U251 CNS it was 18.9 µM; with SK-OV-3 ovarian, over 100 µM; in the test on SK-MEL-5 melanoma it was 36.6 µM; in the test with HOP-62 NSCLC, 38 µM.
Consider `CCOC(=O)c1ncn2c1[nH]c(=O)c1ccccc12`, for which the TGI with TK-10 renal, in the test with KM12 colon, in the test on OVCAR-4 ovarian, with ACHN renal, in the test with K-562 leukemia and with RXF 393 renal was over 100 µM each time. The TGI in the test with SNB-19 CNS, in the test with U251 CNS, in the test with HT29 colon, with SK-MEL-5 melanoma, in the test on RPMI-8226 leukemia and in the test with MALME-3M melanoma was over 100 µM each time.
For the compound `CC1C2CC(CC2O)C1(C)C` (centres undefined), the TGI with TK-10 renal, with KM12 colon, in the test with OVCAR-4 ovarian, in the test with ACHN renal, in the test on K-562 leukemia and in the test on RXF 393 renal was over 100 µM throughout. Moreover, the TGI in the test on SNB-19 CNS, in the test with U251 CNS, with HT29 colon, in the test with SK-OV-3 ovarian, in the test on SK-MEL-5 melanoma and in the test on HL-60(TB) leukemia was over 100 µM in each case. For the same compound, the TGI in the test with HOP-62 NSCLC, with MALME-3M melanoma and in the test with MDA-MB-435 was over 100 µM each time.
